Assay results: BigSolDB 2.1

CCOC(=O)Cc1c(C(=O)OCC)sc(N)c1C#N
solubility (mole fraction)
Conditions | 273.15 K | 278.15 K | 283.15 K | 288.15 K | 293.15 K | 298.15 K | 303.15 K | 308.15 K | 313.15 K | 318.15 K
in acetone | 0.0446 | 0.0499 | 0.0558 | 0.0628 | 0.071 | 0.0801 | 0.0902 | 0.101 | 0.113 | 0.126
in acetonitrile | 0.0082 | 0.0102 | 0.0125 | 0.0151 | 0.0185 | 0.0225 | 0.0268 | 0.0323 | 0.0385 | 0.0455
in ethanol | 0.0031 | 0.00399 | 0.00505 | 0.00637 | 0.00798 | 0.00998 | 0.0123 | 0.015 | 0.0186 | 0.0227
in ethyl acetate | 0.0237 | 0.0257 | 0.0286 | 0.0318 | 0.0349 | 0.0386 | 0.0427 | 0.0473 | 0.0519 | 0.0567
in isopropanol | 0.00232 | 0.00307 | 0.00396 | 0.00513 | 0.00656 | 0.00845 | 0.0107 | 0.0134 | 0.0168 | 0.0213
in methanol | 0.00483 | 0.00609 | 0.00759 | 0.00947 | 0.0118 | 0.0144 | 0.0176 | 0.0214 | 0.0261 | 0.0313
in n-butanol | 0.00204 | 0.00266 | 0.00343 | 0.00438 | 0.00559 | 0.0071 | 0.0091 | 0.0114 | 0.0144 | 0.0177
in n-propanol | 0.00217 | 0.00286 | 0.0036 | 0.00471 | 0.00618 | 0.00763 | 0.00961 | 0.012 | 0.0151 | 0.0188
in toluene | 0.000402 | 0.00052 | 0.000664 | 0.000858 | 0.00109 | 0.00139 | 0.00171 | 0.00215 | 0.00265 | 0.00323
